Reference: ChEMBL document CHEMBL3085635, “Synthesis of structurally diverse benzosuberene analogues and their biological evaluation as anti-cancer agents” (Bioorg Med Chem, 2013)

Columns and labels:
DU-145 = experiment: Cytotoxicity against human DU145 cells after 48 hrs by SRB assay; assay type: functional
NCI-H460 = experiment: Cytotoxicity against human NCI-H460 cells after 48 hrs by SRB assay; assay type: functional
SK-OV-3 = experiment: Cytotoxicity against human SKOV3 cells after 48 hrs by SRB assay; assay type: functional
[1] = Inhibition of calf brain tubulin polymerization after 15 mins by UV-visible spectrophotometry; design: species or system Bos taurus

SMILES | GI50 (DU-145; Homo sapiens, DU-145, 48 h) | GI50 (NCI-H460; Homo sapiens, NCI-H460, 48 h) | GI50 (SK-OV-3; Homo sapiens, SK-OV-3, 48 h) | IC50 [1] | GI50 (DU-145) | GI50 (NCI-H460) | GI50 (SK-OV-3)
COc1ccc(/C=C\c2cc(OC)c(OC)c(OC)c2)cc1O [COMBRETASTATIN A4] | 3.27 nM | 2.23 nM | 4.55 nM |  |  |  | 
COc1ccc2c(c1F)CCCC=C2c1cc(OC)c(OC)c(OC)c1 | 18.9 nM | 5.47 nM | 7.51 nM | 890 nM |  |  | 
COc1cc(C2=CCCCc3c2cc(OC)c(OC)c3O)cc(OC)c1OC | 38400 nM | 25900 nM | 18100 nM | > 40000 nM |  |  | 
COc1ccc(C2=CCCCc3c2ccc(OC)c3OC)cc1OC | 42500 nM | > 136000 nM | > 89500 nM | > 40000 nM |  |  | 
COc1cc2c(c(OC)c1O)CCCC=C2c1cc(OC)c(OC)c(OC)c1 | 15700 nM | 18000 nM | 7130 nM | > 40000 nM |  |  | 
COc1ccc2c(c1N)CCCC=C2c1cc(OC)c(OC)c(OC)c1 |  | 2.8 nM | 0.102 nM | 1200 nM |  |  | 
COc1ccc2c(c1NC(=O)[C@@H](N)CO)CCCC=C2c1cc(OC)c(OC)c(OC)c1 [listing 1 of 2 here] |  |  |  |  | 70500 nM | 39000 nM | 36800 nM
COc1ccc2c(c1NC(=O)[C@@H](N)CO)CCCC=C2c1cc(OC)c(OC)c(OC)c1 [listing 2 of 2 here] | 69400 nM | 53800 nM | 35000 nM |  |  |  | 
COc1ccc2c(c1O)CCCC=C2c1cc(OC)c(OC)c(OC)c1 | 0.0249 nM | 0.0418 nM | 0.0543 nM | 1400 nM |  |  | 
COc1ccc(/C=C\c2cc(OC)c(OC)c(OC)c2)cc1OP(=O)(O)O [FOSBRETABULIN DISODIUM] | 3.23 nM | 1.94 nM | 1.19 nM | > 40000 nM |  |  | 
COc1ccc2c(c1Cl)CCCC=C2c1cc(OC)c(OC)c(OC)c1 | 152 nM | 71.3 nM | 44.4 nM | 930 nM |  |  | 
COc1ccc(C2=CCCCc3c2ccc(OC)c3O)cc1OC | 109 nM | 262 nM | 33.4 nM | 740 nM |  |  | 
COc1cc(C2=CCCCc3c2ccc(OC)c3OP(=O)(O)O)cc(OC)c1OC | 9.51 nM | 7.96 nM |  | > 40000 nM |  |  | 
COc1cc(C2=CCCCc3ccccc32)cc(OC)c1OC | 22000 nM | 32500 nM | 19100 nM | > 40000 nM |  |  | 
